# Source: patent US4616038A, “Combination of thienamycin-type antibiotics with dipeptidase inhibitors” (Merck & Co., Inc., priority 1985, dated 1986)
# Read-outs that look alike come from different tables or passages of the source.
# Tests used:
# [1] = molecular target: T1, renal dipeptidase (E.C.3.4.13.11) (Sus scrofa, UniProt P22412); assay: Inhibition of glycyldehydrophenylalanine (GDP) hydrolysis by renal dipeptidase in vitro; type: biochemical, pig (hog)
# T1 construct: solubilized preparation of dipeptidase isolated from hog kidneys; from tissue; host or cells: hog kidney
# T1 sequence (P22412 17-409): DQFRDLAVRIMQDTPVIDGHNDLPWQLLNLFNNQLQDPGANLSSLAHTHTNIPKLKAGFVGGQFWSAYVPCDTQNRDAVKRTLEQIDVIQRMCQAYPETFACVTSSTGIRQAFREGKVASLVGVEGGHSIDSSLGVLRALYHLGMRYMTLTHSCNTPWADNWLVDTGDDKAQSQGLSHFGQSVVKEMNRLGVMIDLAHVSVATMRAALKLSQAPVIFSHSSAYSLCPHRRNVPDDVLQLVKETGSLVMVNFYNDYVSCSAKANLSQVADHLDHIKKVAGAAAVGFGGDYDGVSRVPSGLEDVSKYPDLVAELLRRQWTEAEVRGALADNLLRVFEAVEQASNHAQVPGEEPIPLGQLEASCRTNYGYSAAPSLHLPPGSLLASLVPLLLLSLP
# Procedure: This measured the ability of compounds to inhibit hydrolysis of glycyldehydrophenylalanine (GDP) by a solubilized preparation of dipeptidase isolated from hog kidneys The procedure is as follows to a 1 ml. system containing 50 mM "MOPS" (3-(N-morpholino)propanesulfonic acid) buffer, pH 7.1, is added 5 μg of lyophilized enzyme, and the test compound at a final concentration of 0.1 mM. After a five minute incubation at 37° C., GDP is added to a final concentration of 0.05 mM. Incubation is continued for 10 minutes, at 37° C. and hydrolysis of GDP is measured by the change in optical density with time at 275 nm. Inhibition of the enzyme is gauged by comparison to a standard run containing no inhibitor and is expressed as the inhibitor binding constant, Ki.
# A 1 ml. system of 50 mM "MOPS" buffer, pH 7.1, is used. To this is added 5 μg of the pig renal enzyme and an amount of the test compound to bring its final concentration to 0.1 mM. After a five minute incubation at 37° C., an amount of GDP is added to bring its final concentration to 0.05 mM. The system is again incubated for 10 minutes, at 37° C. Hydrolysis of GDP is measured by its change in optical density with time at 275 nm. Inhibition of the enzyme is gauged by comparison to a standard run containing no inhibitor and is presented as percent inhibition.
# [2] = Urinary recovery of thienamycin class compound in the mouse; type: in vivo; conditions: urine, po, 10 mg/kg; for dose excreted: Total
# Procedure: (§1) An in vivo assay is conducted using 34 Charles River CD female mice. Seventeen of the mice are administered 40 mg/kg of the inhibitor 7-(L-2-amino-2-carboxyethylthio)-2-(2,2-dimethylcyclopropanecarboxamido)-2-heptenoic acid subcutaneously, and an additional 40 mg/kg per os. Immediately thereafter they and an additional 17 mice are administered 10 mg/kg of the thienamycin class compoud (±)-[5R,6S]-2-ethylthio-6[(R)-1-hydroxyethyl]-pen-2-em-3-sodiocarboxylate by oral gavage. The level of the latter compound in plasma is tested at 10, 30, 60 and 90 minutes using 3 mice from each group at each time period.
# The remaining 5 mice from each group are tested for urinary recovery of the thienamycin class compound with the following results.
# [3] = Plasma level of thienamycin class compound in the mouse; type: in vivo; conditions: po, 10 mg/kg; for concentration at 0.5 h: 30 minutes; for concentration at 1 h: 60 minutes; for concentration at […]: 90 minutes
# Procedure: as §1
# [4] = Urinary recovery of thienamycin in the mouse with co-administered inhibitor; type: in vivo; conditions: urine
# Procedure: In addition to this in vitro screen procedure, an in vivo sreen was followed to measure the test compound's ability to inhibit metabolism as reflected by increase in urinary recovery of thienamycin from the mouse. The procedure involves co-administration of the test compound by the intravenous or subcutaneous route at a dose-rate of 10-100 mg/kg, with 10 mg/kg thienamycin. Thienamycin recovery in the urine over a 4 hour period is then compared with its recovery in a control group to which test compound was not coadministered.
# Urinary recovery of thienamycin was measured in all cases with the use of a cylinder or disc diffusion assay, conducted in a manner described in U.S. Pat. No. 3,950,357. This bioassay, with Staphylococcus aureus ATCC 6538 as the test organism, has a useful response range from 0.04 μg/ml to 3.0 μg/ml.
# An in vivo assay on the mouse was conducted as follows: 20 g Charles River CD, female mice were injected subcutaneously with the chosen dose of the chemical inhibitor. About two minutes later, the dose of thienamycin was given intravenously. A control of thienamycin above was also conducted. The level of thienamycin in the urine as a % of dose was measured using a bioassay technique. The two test compound numbers are those from Table I. Compound 7 is Z-2-isovaleramido-2-butenoicacid; compound 10 is Z-2-cyclopropylcarboxamido-2-butenoic acid. […]
# [5] = concentration producing 50% inhibition, substrate GDP 0.05 mM, pH 7.1, 37° C., read-out: Ki
# [6] = 10 mg/kg oral plus inhibitor (40 mg/kg SC + 40 mg/kg per os)
SMILES,"Ki [1, 5]",also measured
CSCC/C=C(\NC(=O)C1CC1(C)C)C(=O)O (stereo not drawn) [Compound 54],120 nM,–
CC1(C)CC1C(=O)N/C(=C\CC1CCCCC1)C(=O)O (stereo not drawn) [Compound 52],150 nM,–
C/C=C(\NC(=O)C1CCC1)C(=O)O [Compound 8],6200 nM,–
CC1(C)CC1C(=O)N/C(=C\CCCCSC[C@H](N)C(=O)O)C(=O)O (stereo partly drawn) [Compound 17],–,Ki [1]: 210 nM
C/C=C(\NC(=O)C1CCCC1)C(=O)O [Compound 24],30000 nM,–
C/C=C(\NC(=O)C1CC1(CC)CC)C(=O)O (stereo not drawn) [Compound 42],860 nM,–
C/C=C(\NC(=O)CC(C)CCOC)C(=O)O (stereo not drawn) [Compound 34],9000 nM,–
"C/C=C(\NC(=O)CCCC)C(=O)O [Compound 23, Z-2-valeramido-2-butenoic acid]",32000 nM,–
C/C=C(\NC(=O)CCCC1CCCCC1)C(=O)O [Compound 21],30000 nM,–
CC(NCCCCC/C=C(\NC(=O)C1CC1(C)C)C(=O)O)P(=O)(O)O (stereo not drawn) [Example 18B],–,"Ki ([1]; Example 18B, unit inferred, read-out: Ki): 160 nM"
C/C=C(\NC(=O)C1C(C)C1C)C(=O)O (stereo not drawn) [Compound 6],4600 nM,–
CC1(C)CC1C(=O)N/C(=C\c1ccccc1)C(=O)O (stereo not drawn) [Compound 46],620 nM,–
"CCSC1=C(C(=O)O)N2C(=O)[C@H]([C@@H](C)O)[C@H]2S1 (relative stereo) [Thienamycin Class Compound, (±)-[5R,6S]-2-ethylthio-6[(R)-1-hydroxyethyl]-pen-2-em-3-sodiocarboxylate]",–,"dose excreted at 1 h [2, 6]: 1.5%; dose excreted at 1 h ([2]; compound alone, 10 mg/kg oral): 1.8%; dose excreted at 3 h [2, 6]: 2.3%; dose excreted at 3 h ([2]; compound alone, 10 mg/kg oral): 0.6%; dose excreted [2, 6]: 3.8%; dose excreted ([2]; compound alone, 10 mg/kg oral): 2.4%; concentration at 10 min [3, 6]: 2600 µg/mL; concentration at 10 min ([3]; compound alone, 10 mg/kg oral): 3100 µg/mL; concentration at 0.5 h [3, 6]: 4800 µg/mL; concentration at 0.5 h ([3]; compound alone, 10 mg/kg oral): 3700 µg/mL; concentration at 1 h [3, 6]: 6100 µg/mL; concentration at 1 h ([3]; compound alone, 10 mg/kg oral): 4400 µg/mL; concentration at […] [3, 6]: 3800 µg/mL; concentration at […] ([3]; compound alone, 10 mg/kg oral): 1800 µg/mL"
CC/C=C(\NC(=O)C1CC1(C)C)C(=O)O (stereo not drawn) [Compound 45],180 nM,–
C[C@@H](O)[C@H]1C(=O)N2C(C(=O)O)=C(SCCN)C[C@H]12 [Thienamycin],–,"dose excreted at 4 h ([4]; Table III, THM alone 10 mg/kg IV or SC, read-out: Urinary Recovery of THM, %): 30 ± 5%; dose excreted at 4 h ([4]; Table IV, THM alone 10 mg/kg SC, read-out: Urinary Recovery THM, %): 30 ± 5%"
C/C=C(\NC(=O)CC1CC1)C(=O)O [Compound 22],22000 nM,–
CC(C)C/C=C(\NC(=O)C1CC1(C)C)C(=O)O (stereo not drawn) [Compound 48],230 nM,–

SMILES,"Ki [1, 5]",also measured
O=C(O)CC/C=C(\NC(=O)C1CC1)C(=O)O [Compound 33],5000 nM,–
"C/C=C(\NC(=O)CCCCCCC)C(=O)O [Compound 19, Z-2-octanamido-2-butenoic acid]",26000 nM,–
"CCCCC/C=C(\NC(=O)[C@H]1CC1(C)C)C(=O)O [dextrorotatory isomer, Z-2-(2,2-dimethylcyclopropanecarboxamido)-2-octenoic acid]",–,"activity of resolved isomers ([1]; resolved racemic Z-2-(2,2-dimethylcyclopropanecarboxamido)-2-octenoic acid): The activity resides in the dextrorotatory isomer"
C/C=C(\NC(=O)C1CC1C)C(=O)O (stereo not drawn) [Compound 3],1700 nM,–
C/C=C(\NC(=O)C1CC1C(C)(C)C)C(=O)O (stereo not drawn) [Compound 38],6500 nM,–
CCCCC/C=C(\NC(=O)C1CC1(C)C)C(=O)O (stereo not drawn) [Compound 50],170 nM,–
C/C=C(\NC(=O)C1CC1CC)C(=O)O (stereo not drawn) [Compound 43],1600 nM,–
CCCC/C=C(\NC(=O)C1CC1(C)C)C(=O)O (stereo not drawn) [Compound 49],110 nM,–
C[N+](C)(C)CCCCC/C=C(\NC(=O)C1CC1(Cl)Cl)C(=O)[O-] (stereo not drawn) [Compound 13],180 nM,–
C/C=C(\NC(=O)CC(C)CC)C(=O)O (stereo not drawn) [Compound 11],10000 nM,–
COCCC/C=C(\NC(=O)C1CC1(C)C)C(=O)O (stereo not drawn) [Compound 60],280 nM,–
CC1(C)CC1C(=O)N/C(=C\CCc1ccccc1)C(=O)O (stereo not drawn) [Compound 53],330 nM,–
C/C=C(\NC(=O)CC(C)CC(C)(C)C)C(=O)O (stereo not drawn) [Compound 5],4400 nM,–
CCC/C=C(\NC(=O)C1CC1(C)C)C(=O)O (stereo not drawn) [Compound 47],110 nM,–
C/C=C(\NC(=O)CCCc1ccccc1)C(=O)O [Compound 37],11000 nM,–
COCC/C=C(\NC(=O)C1CC1(C)C)C(=O)O (stereo not drawn) [Compound 61],320 nM,–
"CCCCC/C=C(\NC(=O)CC(C)C)C(=O)O [Compound 39, Z--isovaleramido-2-octenoic acid]",2600 nM,–

# Second part, led by results:
"Ki [1, 5]",SMILES,also measured
340 nM,CC(C)(C)C/C=C(\NC(=O)C1CC1(C)C)C(=O)O (stereo not drawn) [Compound 62],–
80 nM,CCCCC/C=C(\NC(=O)[C@H]1CC1(C)C)C(=O)O [Compound 66],–
150 nM,CC(C)CC/C=C(\NC(=O)C1CC1(C)C)C(=O)O (stereo not drawn) [Compound 63],–
450 nM,C/C=C(\NC(=O)C1CC1(C)CC)C(=O)O (stereo not drawn) [Compound 40],–
6600 nM,C/C=C(\NC(=O)CC1CCC1)C(=O)O [Compound 9],–
19000 nM,C/C=C(\NC(=O)CCCCCBr)C(=O)O [Compound 35],–
540 nM,CC(C)/C=C(\NC(=O)C1CC1(C)C)C(=O)O (stereo not drawn) [Compound 41],"inhibition at 100 µM ([1]; 10^-4 M inhibitor, 0.05 mM GDP, pH 7.1, 37° C.): 98%"
30000 nM,"C/C=C(\NC(=O)CCC)C(=O)O [Compound 20, Z-2-butyramido-2-butenoic acid]",–
720 nM,CC(=N)NCCCCC/C=C(\NC(=O)C1CC1(C)C)C(=O)O (stereo not drawn) [Compound 15],–
1110 nM,CC1(C)CC1C(=O)N/C(=C\CCCCC[N+](C)(C)C)C(=O)[O-] (stereo not drawn) [Compound 14],–
140 nM,CCCCCCCCCC/C=C(\NC(=O)C1CC1(C)C)C(=O)O (stereo not drawn) [Compound 58],–
500 nM,CC1(C)CC1C(=O)N/C(=C\CCS(C)(=O)=O)C(=O)O (stereo not drawn) [Compound 55],–
3000 nM,C/C=C(\NC(=O)C1CC1(C)C(C)C)C(=O)O (stereo not drawn) [Compound 44],–
3200 nM,CC/C=C(\NC(=O)CC(C)C)C(=O)O [Compound 4],–
